Consider one molecule from patent US7367988B1, “Use of electromagnetic fields in cancer and other therapies” (The Catholic University of America, priority 2000, dated 2008).

Read-outs that look alike come from different tables or passages of the source.

This series deals with chick embryos.

Experimental: I have investigated the effect of EM fields on the ability of taxol to create abnormalities in rapidly dividing cells. The model for this purpose was chick embryos. The embryos were incubated in the presence of a 60 Hz, 8 μT EM field. After 48 hours of continuous incubation, either dimethyl sulfoxide (DMSO) alone (controls) or Taxol dissolved in DMSO was injected. EM field incubation was continued for an additional 48 hours. At the end of 4 days incubation, embryos were visualized and classified as normal or abnormal (deformed, young, or dead).

`CC(=O)O[C@H]1C(=O)[C@@]2(C)[C@H]([C@H](OC(=O)c3ccccc3)[C@]3(O)C[C@H](OC(=O)[C@H](O)[C@@H](NC(=O)c4ccccc4)c4ccccc4)C(C)=C1C3(C)C)[C@]1(OC(C)=O)CO[C@@H]1C[C@@H]2O` [Taxol]: the “Percent Abnormal Embryos” value (Taxol + EM fields: 60 Hz, 8 μT for 48 hours before injection and an additional 48 hours after, embryos classified at 4 days) was found to be 31.1%; the “Percent Abnormal Embryos” value (Taxol alone, dissolved in DMSO, injected after 48 hours of incubation, embryos classified normal or abnormal (deformed, young, or dead) at 4 days) worked out at 19.3%. Also, the “Toxic effect of taxol with EM field exposure compared with taxol alone” value (in vivo) is reported as “very significant increase in the toxic effect”.
